Measurements reported in the NIST ThermoML archive (doi:10.1021/je060271a).

Conditions: 283.15 K, Liquid, Vibrating tube method

CCCC(=O)OCC(COC(=O)CCC)(COC(=O)CCC)COC(=O)CCC [pentaerythritol tetrabutyrate]
Conditions | mass density [kg/m3]
28936 kPa | 1075.1
28969 kPa | 1075.2
28985 kPa | 1075.3
28997 kPa | 1075.2
29011 kPa | 1075.2
29026 kPa | 1075.1
29043 kPa | 1075.2
29054 kPa | 1075.3
29088 kPa | 1075.3
29116 kPa | 1075.3
29146 kPa | 1075.2
29150 kPa | 1075.4
29179 kPa | 1075.3
29207 kPa | 1075.3
29240 kPa | 1075.3
29253 kPa | 1075.5
29268 kPa | 1075.4
29296 kPa | 1075.4
29322 kPa | 1075.4
29330 kPa | 1075.5
29357 kPa | 1075.4
29385 kPa | 1075.6
29417 kPa | 1075.4
29442 kPa | 1075.4
29443 kPa | 1075.6
29464 kPa | 1075.4
29471 kPa | 1075.6
29482 kPa | 1075.7
29505 kPa | 1075.5
29534 kPa | 1075.5
29557 kPa | 1075.5
29562 kPa | 1075.6
29590 kPa | 1075.5
29625 kPa | 1075.6
29628 kPa | 1075.6
29649 kPa | 1075.5
29655 kPa | 1075.6
29683 kPa | 1075.6
29711 kPa | 1075.5
29718 kPa | 1075.7
29748 kPa | 1075.7
29778 kPa | 1075.5
29786 kPa | 1075.7
29808 kPa | 1075.6
29843 kPa | 1075.7
29859 kPa | 1075.7
29872 kPa | 1075.7
29901 kPa | 1075.7
29931 kPa | 1075.8
29943 kPa | 1075.7
29966 kPa | 1075.7
29996 kPa | 1075.8
30016 kPa | 1075.8
30031 kPa | 1075.7
30034 kPa | 1075.7
30037 kPa | 1075.8
30045 kPa | 1075.9
30052 kPa | 1075.8
30061 kPa | 1075.8
30091 kPa | 1075.8
30121 kPa | 1075.8
30158 kPa | 1075.9
30189 kPa | 1075.9
30208 kPa | 1075.9
30219 kPa | 1075.9
30250 kPa | 1075.8
30282 kPa | 1076
30285 kPa | 1075.9
30316 kPa | 1076
30325 kPa | 1076
30346 kPa | 1075.9
30381 kPa | 1076
30411 kPa | 1075.9
